The structures appear in SMILES notation. “And” between values parts separate entries of the source, which are not always exact repeats. Equal values may be shown once. Read-outs that look alike come from different tables or passages of the source. Where only a bound is given, the exact number is not on record here.

As a reminder, the IC50 is the concentration at which inhibition is half-maximal. By EC50 is commonly meant the midpoint of the concentration-response curve. Usually Papp B→A stands for how fast a substance crosses the layer from the basolateral side. The Papp A→B is how fast a substance crosses the layer from the apical side. The low end stands for poor permeation, the high end for ready permeation. As usually defined, the efflux ratio is the permeability from basolateral to apical divided by that in the opposite direction, in the common usage.

One data set deals with T1, PDGFRA-D842V (Homo sapiens, UniProt P16234, D842V).
T1 construct: purchased Invitrogen PV4203 (lot #2343231B)
T1 sequence (P16234 24-1089 D842V): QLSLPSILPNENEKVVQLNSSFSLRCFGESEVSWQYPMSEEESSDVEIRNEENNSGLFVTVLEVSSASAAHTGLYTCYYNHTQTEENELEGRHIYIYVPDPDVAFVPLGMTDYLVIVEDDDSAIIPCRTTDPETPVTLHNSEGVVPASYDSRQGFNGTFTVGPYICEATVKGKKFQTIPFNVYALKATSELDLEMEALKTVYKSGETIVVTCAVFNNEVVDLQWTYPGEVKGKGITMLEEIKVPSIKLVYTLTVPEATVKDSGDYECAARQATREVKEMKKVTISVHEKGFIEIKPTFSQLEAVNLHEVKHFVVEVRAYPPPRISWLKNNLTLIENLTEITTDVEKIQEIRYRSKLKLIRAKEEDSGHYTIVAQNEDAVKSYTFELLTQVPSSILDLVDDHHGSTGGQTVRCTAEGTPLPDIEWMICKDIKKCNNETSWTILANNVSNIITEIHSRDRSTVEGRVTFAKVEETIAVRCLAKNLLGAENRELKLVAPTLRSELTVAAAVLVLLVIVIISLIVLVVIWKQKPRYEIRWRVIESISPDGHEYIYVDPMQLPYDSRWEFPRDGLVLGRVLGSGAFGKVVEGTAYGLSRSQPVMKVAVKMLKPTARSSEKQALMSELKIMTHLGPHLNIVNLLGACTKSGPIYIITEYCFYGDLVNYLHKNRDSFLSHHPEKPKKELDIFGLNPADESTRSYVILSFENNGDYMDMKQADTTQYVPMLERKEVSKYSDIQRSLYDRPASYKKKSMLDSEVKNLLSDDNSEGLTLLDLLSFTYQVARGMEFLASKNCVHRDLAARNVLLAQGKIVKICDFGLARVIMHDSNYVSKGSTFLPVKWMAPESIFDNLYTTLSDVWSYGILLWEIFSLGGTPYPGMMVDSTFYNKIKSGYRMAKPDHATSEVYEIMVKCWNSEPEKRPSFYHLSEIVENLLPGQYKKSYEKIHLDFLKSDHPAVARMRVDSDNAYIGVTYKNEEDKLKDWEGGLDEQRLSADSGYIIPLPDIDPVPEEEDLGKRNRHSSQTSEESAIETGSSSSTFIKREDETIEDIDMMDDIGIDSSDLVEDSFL
Nature of the data set: Activity-based HTRF KinEASE assay, PDGFRA-D842V. The class given is biochemical. For orientation: Time-resolved FRET reads energy transfer from a long-lived donor to a nearby acceptor.

Another data set has as its target KIT-D816H (Homo sapiens, UniProt P10721, D816H). Nature of the data set: Activity-based HTRF KinEASE assay, KIT-D816H. The class given is biochemical.
The subject of a further data set is ZR-75-1. Description: CellTiter-Glo (CTG) EC50, ZR-75-1 breast cancer control cell line. The format is cell-based, human. The following applies: Homo sapiens. The protocol: (§1) Cell line authenticity was confirmed by STR analysis at Eurofins Genomics. All cell lines were tested regularly for mycoplasma contamination using the Mycoplasmacheck Service at Eurofins Genomics. […] Following incubation for 24 h in a humidified atmosphere at 37 °C and 5% CO2, cells were treated with inhibitors in serial dilutions ranging from 30 µM down to 0.1 nM using an Echo650 acoustic liquid handler (Beckman Coulter). Cell viability was analyzed on day 5 using the CellTiter-Glo® assay (Promega) using 500 ms integration time. The obtained data were normalized to the plate positive control (30 µM staurosporine) and negative control (DMSO) and subsequently analyzed and fitted with the Quattro Software Suite (Quattro Research) using a four-parameter logistic model. As quality control, the Z’-factor was calculated from 16 positive and negative control values. Only assay results showing a Z’-factor ≥0.5 were used for further analysis. All experimental points were measured in duplicates for each plate and were independently replicated in at least three plates.

For the next data set, the system named is MDA-MB-175VII. Description: CellTiter-Glo (CTG) EC50, MDA-MB-175VII breast cancer control cell line. The class given is cell-based, human. The following applies: Homo sapiens, MDA-MB-175-VII. As to the method:
as §1
(Cellular ATP, detected with luciferase, serves as a proxy for viable cell number.)

The subject of a further data set is GIST-T1. Description: CellTiter-Glo (CTG) GR50, GIST-T1. The following applies: for GI50: Homo sapiens.
For the next data set, the system named is T1-T670I. Nature of the data set: CellTiter-Glo (CTG) GR50, T1-T670I. Conditions: Homo sapiens.
The test system of another data set is T1-V654A. Nature of the data set: CellTiter-Glo (CTG) GR50, T1-V654A. The following applies: Homo sapiens.
The next data set relates to T1-a-5258. Nature of the data set: CellTiter-Glo (CTG) GR50, T1-a-5258. Conditions: Homo sapiens.
In a further data set the test system is T1-a-D842V. Description: CellTiter-Glo (CTG) GR50, T1-a-D842V. The following applies: comparator not clearly stated.
A further data set relates to SK-LMS-1. Description: CellTiter-Glo (CTG) GR50, SK-LMS-1 control cell line. The following applies: for CTG GR50 SK-LMS-1, single determinations: raw data of Supp. Tab. 2, independent experiments, unit from Supp. Tab. 2.
Another data set deals with GIST-48B. Nature of the data set: CellTiter-Glo (CTG) GR50, GIST-48B control cell line (off-target toxicity). Conditions: ratio of GR50 values; for GIST-48B/D842V: source data sheet.
Data set [1] in a line: MDCKII-MDR1 permeability assay. Conditions: dog; for Papp B→A at 2 h, 10 µM: MDCK-MDR1.
The subject of another data set is MDCKII-MDR1 cells. Nature of the data set: MDCKII-MDR1 permeability assay. The following applies: reference compounds of the MDCKII-MDR1 assay.
A further data set has as its system MDR1. Description: MDCKII-MDR1 permeability assay. Conditions: dog; for recovery at 2 h, 10 µM: MDCKII-MDR1, assay conc. 10.
Setting [2] is: mean ± s.d., n ≥ 3, ATP at KM (14 µM), read-out: HTRF IC50 PDGFRA-D842V.
[3] abbreviates: raw data of Table 1, independent experiments 1-3, unit from Table 1, read-out: HTRF IC50 PDGFRA-D842V, single determinations.
Where [4] appears, read: mean ± s.d., n ≥ 3, ATP at KM (12 µM), read-out: HTRF IC50 KIT-D816H.
The mark [5] stands for this setting: raw data of Table 1, independent experiments, unit from Table 1, read-out: HTRF IC50 KIT-D816H, single determinations.
The mark [6] stands for this setting: ZR-75-1, mean ± s.d., n = 3, control cell line, read-out: CTG EC50 ZR-75-1.
The mark [7] stands for this setting: ZR-75-1, raw data of Supp. Tab. 2, independent experiments, unit from Supp. Tab. 2, read-out: CTG EC50 ZR-75-1, single determinations.
The mark [8] stands for this setting: read-out: CTG EC50 MDA-MB-175VII, mean ± s.d., n = 3, control cell line.
Where [9] appears, read: read-out: CTG EC50 MDA-MB-175VII, single determinations, raw data of Supp. Tab. 2, independent experiments, unit from Supp. Tab. 2.
The mark [10] stands for this setting: GISTT1, read-out: CTG GR50 GIST-T1, single determinations, raw data of Table 1, independent experiments, unit from Table 1.
The mark [11] stands for this setting: GISTT1, read-out: KIT CTG GR50 GIST-T1, mean ± s.d., n ≥ 3, GR50 half-maximal growth inhibition rate.
Where [12] appears, read: read-out: CTG GR50 T1-T670I, single determinations, raw data of Supp. Tab. 1, independent experiments, unit from Supp. Tab. 1.
Where [13] appears, read: read-out: KIT CTG GR50 T1-T670I, mean ± s.d., n ≥ 3.
Setting [14] is: read-out: CTG GR50 T1-V654A, single determinations, raw data of Supp. Tab. 1, independent experiments, unit from Supp. Tab. 1.
Setting [15] is: read-out: KIT CTG GR50 T1-V654A, mean ± s.d., n ≥ 3 (* n = 2 for ava).
Where [16] appears, read: read-out: CTG GR50 T1-a-5258, single determinations, raw data of Supp. Tab. 1, independent experiments, unit from Supp. Tab. 1.
Where [17] appears, read: read-out: PDGFRA CTG GR50 T1-a-5258, mean ± s.d., n ≥ 3, triple mutant D842V, G652E, V658A.

Chain of KIT-D816H (P10721 26-976 D816H): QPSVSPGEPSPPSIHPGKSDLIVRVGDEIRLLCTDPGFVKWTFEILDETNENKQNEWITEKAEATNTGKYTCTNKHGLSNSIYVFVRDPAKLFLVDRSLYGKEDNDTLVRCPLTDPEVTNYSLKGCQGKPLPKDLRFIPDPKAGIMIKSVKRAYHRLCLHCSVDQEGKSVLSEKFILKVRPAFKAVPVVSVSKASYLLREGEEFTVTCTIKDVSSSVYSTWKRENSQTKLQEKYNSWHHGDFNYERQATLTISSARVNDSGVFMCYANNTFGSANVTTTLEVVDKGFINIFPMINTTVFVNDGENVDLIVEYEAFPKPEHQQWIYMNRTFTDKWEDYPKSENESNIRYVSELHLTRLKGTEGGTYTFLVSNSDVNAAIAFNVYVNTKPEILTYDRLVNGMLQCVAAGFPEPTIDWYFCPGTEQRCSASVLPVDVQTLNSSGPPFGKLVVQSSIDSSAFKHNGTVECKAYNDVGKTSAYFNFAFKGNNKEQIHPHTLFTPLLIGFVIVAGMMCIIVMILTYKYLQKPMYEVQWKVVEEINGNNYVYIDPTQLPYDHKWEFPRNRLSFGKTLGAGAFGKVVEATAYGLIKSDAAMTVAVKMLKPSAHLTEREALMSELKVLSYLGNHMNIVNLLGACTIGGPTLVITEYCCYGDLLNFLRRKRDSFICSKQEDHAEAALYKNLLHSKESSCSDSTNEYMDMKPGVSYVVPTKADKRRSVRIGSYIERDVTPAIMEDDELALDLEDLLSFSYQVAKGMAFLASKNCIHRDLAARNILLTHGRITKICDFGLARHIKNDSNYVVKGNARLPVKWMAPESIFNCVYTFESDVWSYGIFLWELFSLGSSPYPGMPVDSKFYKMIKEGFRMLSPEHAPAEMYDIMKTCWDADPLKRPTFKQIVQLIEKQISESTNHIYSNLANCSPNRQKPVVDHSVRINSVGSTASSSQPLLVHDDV

Turning to `Cn1cc(-c2cc3c(N4CCC5(CC4)CN(c4ncc(Cc6ccccc6)cn4)C5)ncnn3c2)cn1` [Compound 7], the IC50 is 0.749 ± 0.142 µM on PDGFRA-D842V (setting [2]); 0.563 µM and 0.909 µM and 0.773 µM on PDGFRA-D842V (setting [3]); 0.204 ± 0.084 µM at KIT-D816H (setting [4]); 0.283 µM and 0.116 µM and 0.213 µM at KIT-D816H (setting [5]). Besides, the EC50 with ZR-75-1 (setting [6]), with ZR-75-1 (setting [7]), in the data set with MDA-MB-175VII (setting [8]) and with MDA-MB-175VII (setting [9]) was no less than 10 µM in each case. Besides, the GI50 in the data set with GIST-T1 (setting [10]) is 0.824 µM; in the data set on GIST-T1 (setting [11]), 0.709 ± 0.196 µM; in the data set on T1-T670I (setting [12]) it was no less than 10 µM; with T1-T670I (setting [13]), no less than 10 µM; in the data set on T1-V654A (setting [14]), 6.13 µM; in the data set on T1-V654A (setting [15]), 6.73 ± 0.439 µM. Further, the GI50 with T1-a-5258 (setting [16]) was 9.97 µM; in the data set on T1-a-5258 (setting [17]) it was 9.52 ± 0.81 µM. Also, in the data set with GIST-T1 (comparator not clearly stated), the “fold decrease in potency, GIST-T1” value is reported as ~ 17 fold. For the same compound, in the data set on T1-a-D842V, the “fold decrease in potency, T1-a-D842V” value was greater than 500 fold. Further, the “CTG GR50 SK-LMS-1, single determinations” value in the data set on SK-LMS-1 was no less than 10 µM. In the data set with GIST-48B, the “ratio GIST-48B/ T1-a-D842V” value amounted to 1. For the same compound, the GIST-48B/D842V with GIST-48B is on record as 1.22.
Consider `C[C@H]1O[C@@H](O[C@H]2[C@@H](O)C[C@H](O[C@H]3[C@@H](O)C[C@H](O[C@H]4CC[C@@]5(C)[C@H](CC[C@@H]6[C@@H]5C[C@@H](O)[C@]5(C)[C@@H](C7=CC(=O)OC7)CC[C@]65O)C4)O[C@@H]3C)O[C@@H]2C)C[C@H](O)[C@@H]1O` [digoxin, reference compound], for which the Papp B→A at 2 h, 10 µM in data set [1] turned out to be 15.4 ± 16 ×10⁻⁶ cm/s. In addition, the Papp A→B at 2 h, 10 µM in data set [1] (MDCK-MDR1, MDCKII-MDR1 (PappA→B), reference compounds, mean over routine assay runs) is 1.9 ± 4.5 ×10⁻⁶ cm/s. Besides, in the data set on MDCKII-MDR1 cells, the “permeability class of reference compound (Comment)” value is “efflux”.
In the case of `CC(=O)N[C@@](C)(c1ccc(F)cc1)c1cnc(N2CCN(c3ncnn4cc(-c5cnn(C)c5)cc34)CC2)nc1` [Compound 10], the IC50 at PDGFRA-D842V (setting [2]) was less than 0.0001 µM; on PDGFRA-D842V (setting [3]), less than 0.0001 µM; at KIT-D816H (setting [4]) it was 0.0005 ± 0.0001 µM; at KIT-D816H (setting [5]), 0.00038 µM and 0.00043 µM and 0.00065 µM. Moreover, the EC50 in the data set with ZR-75-1 (setting [6]), with ZR-75-1 (setting [7]), in the data set with MDA-MB-175VII (setting [8]) and with MDA-MB-175VII (setting [9]) was no less than 10 µM throughout. Moreover, the Papp B→A at 2 h, 10 µM in [1] worked out at 5.43 ×10⁻⁶ cm/s. Further, the Papp A→B at 2 h, 10 µM was 11.3 ×10⁻⁶ cm/s in data set [1] (MDCK-MDR1, MDCKII-MDR1 (Papp A→B), at 10 µM, 2 h, 37 °C, unit inferred) and 11.3 ×10⁻⁶ cm/s in [1] (MDCK-MDR1, Papp A->B, MDCKII-MDR1, assay conc. 10, apical to basolateral). For the same compound, in the data set on MDR1 (MDCK-MDR1), the efflux ratio at 2 h, 10 µM amounted to 0.48. The recovery at 2 h, 10 µM in the data set with MDR1 (MDCK-MDR1, Recovery A->B) came to 44.1%; with MDR1 (MDCK-MDR1, Recovery B->A), 48.4%. The GI50 in the data set on GIST-T1 (setting [10]) was determined as 0.044 µM; in the data set with GIST-T1 (setting [11]), 0.039 ± 0.006 µM; in the data set on T1-T670I (setting [12]), 0.376 µM; in the data set on T1-T670I (setting [13]) it was 0.386 ± 0.039 µM; in the data set on T1-V654A (setting [14]), 0.268 µM; in the data set on T1-V654A (setting [15]), 0.293 ± 0.083 µM. In addition, the GI50 in the data set on T1-a-5258 (setting [16]) is 1.57 µM; in the data set on T1-a-5258 (setting [17]), 2.06 ± 0.43 µM. Also, the “CTG GR50 SK-LMS-1” value in the data set with SK-LMS-1 (mean ± s.d., n = 3, control cell line) was 8.787 ± 2.101 µM and 8.787 µM. In addition, the “CTG GR50 SK-LMS-1, single determinations” value in the data set with SK-LMS-1 is 6.361 µM and 10 µM. Also, the “ratio GIST-48B/ T1-a-D842V” value with GIST-48B is 186. For the same compound, in the data set on GIST-48B, the GIST-48B/D842V stood at 186.

For the origin of these results see publication PMC10761696, “Avapritinib-based SAR studies unveil a binding pocket in KIT and PDGFRA” (Nature Communications, 2024).
